A short description of data set [1]: Inhibition of mouse KHK-C.
The nature of data set [2]: Metabolic stability in rat liver microsomes assessed as compound degradation measured after 30 mins. The conditions noted are these: read-out: Drug degradation. The class given is ADME, Microsome.
Data set [3] can be described thus: Metabolic stability in dog liver microsomes assessed as compound degradation measured after 30 mins. It is filed as ADME, Canis lupus familiaris, Microsome. Conditions: read-out: Drug degradation. (Liver microsomes are a subcellular fraction often used to study metabolism.)
The target of data set [4] is T1, Ketohexokinase (Homo sapiens, UniProt P50053).
T1 sequence (P50053 whole entry): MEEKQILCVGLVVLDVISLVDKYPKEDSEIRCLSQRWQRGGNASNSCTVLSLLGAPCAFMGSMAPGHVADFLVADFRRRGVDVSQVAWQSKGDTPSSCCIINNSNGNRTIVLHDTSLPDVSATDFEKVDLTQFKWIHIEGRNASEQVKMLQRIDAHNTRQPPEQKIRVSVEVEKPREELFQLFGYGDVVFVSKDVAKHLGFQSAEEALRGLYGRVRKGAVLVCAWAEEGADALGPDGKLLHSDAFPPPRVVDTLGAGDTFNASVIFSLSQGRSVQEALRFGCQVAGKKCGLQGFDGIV
Description: Inhibition of human KHK-A preincubated for 15 mins followed by substrate addition and measured after 20 mins in presence of ATP by Rapidfire MS analysis.

In data set [5] the target is T1, Ketohexokinase. Kind of data set: Inhibition of human KHK-C preincubated for 15 mins followed by substrate addition and measured after 20 mins in presence of ATP by Rapidfire MS analysis.
Data set [6] in a line: Metabolic stability in human liver microsomes assessed as compound degradation measured after 30 mins. The class given is ADME, Microsome. The conditions noted are these: read-out: Drug degradation.
Data set [7] in a line: Inhibition of mouse KHK-A.
Data set [8] has as its system Hepatocyte. Description: Cytotoxicity against rat Primary hepatocyte. It is filed as toxicity, cell-based. Conditions: hepatocytes.
In data set [9] the target is T1, Ketohexokinase. Kind of data set: Inhibition of KHK in human HepG2 cells incubated for 3 hrs by Rapidfire MS analysis. It is filed as cell-based.
Data set [10] is described as follows: Metabolic stability in mouse liver microsomes assessed as compound degradation measured after 30 mins. The class given is ADME, Microsome. Conditions: read-out: Drug degradation.
Data set [11] in a line: Thermodynamic solubility of the compound […] at pH 7.4. The class given is physicochemical. Conditions: read-out: Therm_solubility.
The nature of data set [12]: Permeability in MDCK cells assessed as drug transport measured over 1 hr in presence of P-gp. The class given is ADME, cell-based, Canis lupus familiaris. Conditions: dog.
Data set [13] is described as follows: Clearance in rat hepatocytes measured per 10^6 cells. The class given is ADME, cell-based, Hepatocyte. Conditions: read-out: CLH.
Data set [14] can be described thus: Clearance in human hepatocytes measured per 10^6 cells. The conditions noted are these: read-out: CLH. The class given is ADME, cell-based, Hepatocyte.
Data set [15] can be described thus: Clearance in dog hepatocytes measured per 10^6 cells. It is filed as ADME, cell-based, Canis lupus familiaris, Hepatocyte. The conditions noted are these: read-out: CLH.

In brackets after ≈: the same amount, converted by molar mass.

In general, IC50 refers to the concentration at which inhibition is half-maximal.

`C[C@H]1CCN1c1nc(-c2cnn(CCN(C)C)c2)cc(C(F)(F)F)c1C#N`: the IC50 in data set [1] is 44 nM; in data set [4], 22 nM; in data set [5], 28 nM; in [7] it was 4.5 nM; in data set [9], 82 nM. Further, the metabolised at 0.5 h in data set [2] was 83%; in [3] it was 100%; in data set [6], 76%; in data set [10], 100%. In addition, in data set [8], the LC20 was > 50000 nM. The solubility thermodynamic in [11] was < 1 µg/mL.
On to `C[C@H]1CCN1c1nc(-c2cn[nH]c2)cc(C(F)(F)F)c1C#N`, for which the IC50 in data set [1] stood at 19 nM; in [7], 6 nM; in [9], 34 nM. Further, in data set [12], the Drug transport is given as 20%. For the same compound, the metabolised at 0.5 h in [2] turned out to be 81%; in data set [3] it was 98%; in data set [6] it was 52%; in [10], 100%. Further, the hepatocyte CLint was determined as 30 µL/min/1e6 cells in data set [13], 49 µL/min/1e6 cells in data set [14] and 150 µL/min/1e6 cells in data set [15]. Also, the LC20 in [8] is > 50000 nM. For the same compound, the solubility thermodynamic in [11] is 3 µg/mL (≈ 9.76 µM).
For the compound `C[C@H]1CCN1c1nc(-c2cnn(C3CCN(C(=O)CN)CC3)c2)cc(C(F)(F)F)c1C#N`, the IC50 in data set [1] was 10 nM; in [4] it was 6 nM; in data set [5], 6 nM; in data set [7] it was 3 nM; in data set [9] it was 16 nM. Also, the metabolised at 0.5 h was found to be 5% in data set [2], 0% in data set [3], 0% in [6] and 18% in [10]. In [8], this compound gave an LC20 of 16000 nM. The solubility thermodynamic in data set [11] was 12 µg/mL (≈ 26.8 µM).
On to `C[C@H]1CCN1c1nc(-c2cnn(C3CNC3)c2)cc(C(F)(F)F)n1`, for which the IC50 in data set [1] is 3 nM; in data set [4], 4 nM; in data set [5], 5 nM; in data set [7], 13 nM; in data set [9], 6 nM. Moreover, in data set [12], the Drug transport is 12%. Also, the metabolised at 0.5 h in [2] amounted to 11%; in data set [3] it was 20%; in data set [6], 7%; in data set [10], 21%. Further, the figures for the hepatocyte CLint in [13], in [14] and in data set [15] were 11 µL/min/1e6 cells, 2.5 µL/min/1e6 cells and 4.4 µL/min/1e6 cells, respectively. Moreover, in data set [8], the LC20 turned out to be 48000 nM. Moreover, the solubility thermodynamic in data set [11] is 450 µg/mL (≈ 1330 µM).
Turning to `C[C@H]1CCN1c1nc(-c2cnn(C3CCN(C)CC3)c2)cc(C(F)(F)F)c1C#N`, the IC50 in data set [1] came to 14 nM; in [4] it was 7 nM; in [5], 6 nM; in data set [7], 4 nM; in data set [9], 20 nM. The metabolised at 0.5 h in data set [2] came to 33%; in data set [3], 36%; in [6], 11%; in [10], 86%. The solubility thermodynamic in data set [11] turned out to be 11 µg/mL (≈ 27.2 µM).
Take `C[C@H]1CCN1c1nc(-c2cnn(C3CCN(CCO)CC3)c2)cc(C(F)(F)F)c1C#N`: the IC50 stood at 8 nM in data set [1], 4 nM in [4], 6 nM in data set [5] and 15 nM in data set [9]. Besides, the metabolised at 0.5 h in data set [2] is 38%; in data set [3] it was 57%; in data set [6] it was 26%; in data set [10] it was 32%. The LC20 in data set [8] turned out to be 17000 nM. Also, in [11], the solubility thermodynamic was determined as 38 µg/mL (≈ 87.5 µM).
Consider `C[C@H]1CCN1c1nc(-c2cnn(C3CCNCC3)c2)cc(C(F)(F)F)n1`, for which the IC50 in [1] turned out to be 159 nM; in data set [4], 8 nM; in data set [5], 15 nM; in data set [7], 52 nM; in [9], 26 nM. Also, the metabolised at 0.5 h in [2] was 17%; in [3] it was 15%; in data set [6], 2%; in data set [10] it was 8%. Also, in [8], the LC20 was 23000 nM. Also, the solubility thermodynamic in data set [11] amounted to 410 µg/mL (≈ 1120 µM).
Turning to `C[C@H]1CCN1c1nc(-c2cnn(C3CN(C)C3)c2)cc(C(F)(F)F)n1`, the IC50 came to 2 nM in [1], 5 nM in data set [4], 4 nM in data set [5] and 3 nM in [9]. Besides, the Drug transport in data set [12] is 22%. Besides, the metabolised at 0.5 h is 86% in data set [2], 100% in data set [3], 20% in data set [6] and 87% in data set [10]. Also, the hepatocyte CLint in data set [13] came to 29 µL/min/1e6 cells; in data set [14], 5 µL/min/1e6 cells; in [15], 49 µL/min/1e6 cells. The LC20 in data set [8] was > 50000 nM. In [11], the solubility thermodynamic turned out to be 11 µg/mL (≈ 31.2 µM).
On to `C[C@H]1CCN1c1nc(-c2cnn(CC(=O)N3CCN(C)CC3)c2)cc(C(F)(F)F)c1C#N`, for which the IC50 was 7 nM in data set [1]; 9 nM in [4]; 6 nM in [5]; 4 nM in data set [7]; 36 nM in [9]. In addition, the metabolised at 0.5 h was 52% in data set [2], 95% in data set [3], 60% in [6] and 93% in data set [10]. In [8], this compound returned an LC20 of 18000 nM. For the same compound, in data set [11], the solubility thermodynamic was found to be 7 µg/mL (≈ 15.6 µM).
For the compound `C[C@H]1CCN1c1nc(-c2cnn(C3CNC3)c2)cc(C(F)(F)F)c1C#N`, the IC50 in data set [1] came to 5 nM; in data set [4] it was 15 nM; in data set [5] it was 15 nM; in [7] it was 8 nM; in data set [9], 2 nM. Moreover, the metabolised at 0.5 h in [2] turned out to be 26%; in data set [3], 27%; in [6], 15%; in [10], 13%. Further, in data set [8], the LC20 stood at 31000 nM. In [11], the solubility thermodynamic stood at 40 µg/mL (≈ 110 µM).
Regarding `CC(=O)N1CCC(n2cc(-c3cc(C(F)(F)F)c(C#N)c(N4CC[C@@H]4C)n3)cn2)CC1`, the IC50 came out at 45 nM in data set [1], 19 nM in data set [7] and 96 nM in data set [9]. For the same compound, the metabolised at 0.5 h came to 30% in [2], 32% in [3], 45% in data set [6] and 66% in data set [10]. Further, in data set [11], the solubility thermodynamic was 7 µg/mL (≈ 16.2 µM).
As for `C[C@H]1CCN1c1nc(-c2cnn(C3CCOCC3)c2)cc(C(F)(F)F)c1C#N`, the IC50 in data set [1] came to 61 nM; in [4], 33 nM; in data set [5], 38 nM; in data set [7], 40 nM; in [9], 118 nM. In addition, the metabolised at 0.5 h was 98% in data set [2], 98% in data set [3], 49% in data set [6] and 98% in data set [10]. In [8], the LC20 is > 50000 nM. Besides, the solubility thermodynamic in [11] is 31 µg/mL (≈ 79.2 µM).
As for `C[C@H]1CCN1c1nc(-c2cnn(CCO)c2)cc(C(F)(F)F)c1C#N`, the IC50 was found to be 7 nM in data set [1], 5 nM in data set [4], 4 nM in data set [7] and 48 nM in [9]. Also, the metabolised at 0.5 h came to 99% in data set [2], 95% in data set [3], 52% in data set [6] and 99% in data set [10]. For the same compound, the solubility thermodynamic in data set [11] was 1 µg/mL (≈ 2.85 µM).
